# Experimental data from patent US20080161289A1, “Fused Thiazole Derivatives Having Affinity for the Histamine H3 Receptor” (Glaxo Group Limited, priority 2005, published 2008).
# Molecular target: T1, histamine H3 receptors (Homo sapiens, UniProt Q9Y5N1)
# T1 construct: expressed in transfected cells; host or cells: CHO K1 cells carrying pSwitch, transfected with pGeneH3, induced with mifepristone; clone 3H3; membrane preparation
# Test: Histamine H3 functional antagonist assay ([35S]-GTPγS SPA on membranes from H3 cells)
# Assay type: biochemical
# Settings: hydrochloride salts tested; H3 functional antagonist assay using membrane prepared from cultured H3 cells; averages of a number of experiments; read-out: functional pKi (fpKi) (converted)
# Text: A membrane preparation containing histamine H3 receptors may be prepared in accordance with the following procedures:
# (i) Generation of Histamine H3 Cell Line
# DNA encoding the human histamine H3 gene (Huvar, A. et al. (1999) Mol. Pharmacol. 55(6), 1101-1107) was cloned into a holding vector, pCDNA3.1 TOPO (InVitrogen) and its cDNA was isolated from this vector by restriction digestion of plasmid DNA with the enzymes BamHI and Not-1 and ligated into the inducible expression vector pGene (InVitrogen) digested with the same enzymes. The GeneSwitch™ system (a system where in transgene expression is switched off in the absence of an inducer and switched on in the presence of an inducer) was performed as described in U.S. Pat. Nos. 5,364,791; 5,874,534; and 5,935,934. Ligated DNA was transformed into competent DH5α E. coli host bacterial cells and plated onto Luria Broth (LB) agar containing Zeocin™ (an antibiotic which allows the selection of cells expressing the sh ble gene which is present on pGene and pSwitch) at 50 μg ml^−1. Colonies containing the re-ligated plasmid were identified by restriction analysis. DNA for transfection into mammalian cells was prepared from 250 ml cultures of the host bacterium containing the pGeneH3 plasmid and isolated using a DNA preparation kit (Qiagen Midi-Prep) as per manufacturers guidelines (Qiagen).
# CHO K1 cells previously transfected with the pSwitch regulatory plasmid (InVitrogen) were seeded at 2×10e6 cells per T75 flask in Complete Medium, containing Hams F12 (GIBCOBRL, Life Technologies) medium supplemented with 10% v/v dialysed foetal bovine serum, L-glutamine, and hygromycin (100 μg ml^−1), 24 hours prior to use. Plasmid DNA was transfected into the cells using Lipofectamine plus according to the manufacturers guidelines (InVitrogen). 48 hours post transfection cells were placed into complete medium supplemented with 500 μg ml^−1 Zeocin™.
# 10-14 days post selection 10 nM Mifepristone (InVitrogen), was added to the culture medium to induce the expression of the receptor. 18 hours post induction cells were detached from the flask using ethylenediamine tetra-acetic acid (EDTA; 1:5000; InVitrogen), following several washes with phosphate buffered saline pH 7.4 and resuspended in Sorting Medium containing Minimum Essential Medium (MEM), without phenol red, and supplemented with Earles salts and 3% Foetal Clone II (Hyclone). Approximately 1×10e7 cells were examined for receptor expression by staining with a rabbit polyclonal antibody, 4a, raised against the N-terminal domain of the histamine H3 receptor, incubated on ice for 60 minutes, followed by two washes in sorting medium. Receptor bound antibody was detected by incubation of the cells for 60 minutes on ice with a goat anti rabbit antibody, conjugated with Alexa 488 fluorescence marker (Molecular Probes). Following two further washes with Sorting Medium, cells were filtered through a 50 μm Filcon™ (BD Biosciences) and then analysed on a FACS Vantage SE Flow Cytometer fitted with an Automatic Cell Deposition Unit. Control cells were non-induced cells treated in a similar manner. Positively stained cells were sorted as single cells into 96-well plates, containing Complete Medium containing 500 μg ml^−1 Zeocin™ and allowed to expand before reanalysis for receptor expression via antibody and ligand binding studies. One clone, 3H3, was selected for membrane preparation.
# (ii) Membrane Preparation from Cultured Cells
# All steps of the protocol are carried out at 4° C. and with pre-cooled reagents. The cell pellet is resuspended in 10 volumes of homogenisation buffer (50 mM N-2-hydroxyethylpiperazine-N′-2-ethanesulfonic acid (HEPES), 1 mM ethylenediamine tetra-acetic acid (EDTA), pH 7.4 with KOH, supplemented with 10e-6M leupeptin (acetyl-leucyl-leucyl-arginal; Sigma L2884), 25 μg/ml bacitracin (Sigma B0125), 1 mM phenylmethylsulfonyl fluoride (PMSF) and 2×10e-6M pepstain A (Sigma)). […]
# T1 sequence (Q9Y5N1 whole entry): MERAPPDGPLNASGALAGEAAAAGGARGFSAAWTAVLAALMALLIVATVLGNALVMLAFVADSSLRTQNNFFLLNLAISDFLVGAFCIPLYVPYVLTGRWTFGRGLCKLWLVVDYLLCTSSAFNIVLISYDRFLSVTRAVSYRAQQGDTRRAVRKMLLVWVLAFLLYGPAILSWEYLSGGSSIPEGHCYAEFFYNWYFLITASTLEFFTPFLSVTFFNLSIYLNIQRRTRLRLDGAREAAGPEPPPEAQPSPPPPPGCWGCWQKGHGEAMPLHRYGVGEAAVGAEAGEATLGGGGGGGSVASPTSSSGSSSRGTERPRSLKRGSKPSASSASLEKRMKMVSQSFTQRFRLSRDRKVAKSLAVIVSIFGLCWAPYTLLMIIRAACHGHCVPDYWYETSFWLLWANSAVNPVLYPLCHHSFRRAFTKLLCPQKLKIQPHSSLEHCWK
row,Structure (SMILES),Ki [nM]
1,"CC(C)CN1CCc2nc(-c3ccc(N4CCN(C)C4=O)cc3)sc2CC1 [Example E32, 1-Methyl-3-{4-[6-(2-methylpropyl)-5,6,7,8-tetrahydro-4H-[1,3]thiazolo[4,5-d]azepin-2-yl]phenyl}-2-imidazolidinone]",< 0.316
2,"N#Cc1cncc(N2CCC(c3nc4c(s3)CCN(C3CCC3)CC4)C2)c1 (stereo not shown) [Example E39, 5-[3-(6-Cyclobutyl-5,6,7,8-tetrahydro-4H-[1,3]thiazolo[4,5-d]azepin-2-yl)-1-pyrrolidinyl]-3-pyridinecarbonitrile]",< 1.26
3,"c1ncc(-c2nc3c(s2)CCN(C2CCC2)CC3)cn1 [Example E58, 6-Cyclobutyl-2-(5-pyrimidinyl)-5,6,7,8-tetrahydro-4H-[1,3]thiazolo[4,5-d]azepine]",< 31.6
4,"c1nc(N2CCCCC2)ncc1-c1nc2c(s1)CCN(C1CCC1)CC2 [Example E61, 6-Cyclobutyl-2-[2-(1-piperidinyl)-5-pyrimidinyl]-5,6,7,8-tetrahydro-4H-[1,3]thiazolo[4,5-d]azepine]",< 31.6
5,"N#Cc1cncc(N2CCC(c3nc4c(s3)CCN(C3CCC3)CC4)CC2)c1 [Example E66, 5-[4-(6-Cyclobutyl-5,6,7,8-tetrahydro-4H-[1,3]thiazolo[4,5-d]azepin-2-yl)-1-piperidinyl]-3-pyridinecarbonitrile]",< 1.26
6,"N#Cc1ccc(N2CCC(c3nc4c(s3)CCN(C3CCC3)CC4)CC2)cc1 [Example E67, 4-[4-(6-Cyclobutyl-5,6,7,8-tetrahydro-4H-[1,3]thiazolo[4,5-d]azepin-2-yl)-1-piperidinyl]benzonitrile]",< 0.316
7,"Cc1ccccc1NC(=O)N1CCC(c2nc3c(s2)CCN(C2CCC2)CC3)CC1 [Example E70, 4-(6-Cyclobutyl-5,6,7,8-tetrahydro-4H-[1,3]thiazolo[4,5-d]azepin-2-yl)-N-(2-methylphenyl)-1-piperidinecarboxamide]",< 1.26
8,"N#Cc1ccc(-c2nc3c(s2)CCN(C2CCCC2)CC3)nc1 [Example E74, 6-(6-Cyclopentyl-5,6,7,8-tetrahydro-4H-[1,3]thiazolo[4,5-d]azepin-2-yl)-3-pyridinecarbonitrile]",< 31.6
9,"CNC(=O)c1ccc(-c2nc3c(s2)CCN(C2CCC2)CC3)nc1 [Example E76, 6-(6-Cyclobutyl-5,6,7,8-tetrahydro-4H-[1,3]thiazolo[4,5-d]azepin-2-yl)-N-methyl-3-pyridinecarboxamide]",< 31.6
10,"CNC(=O)c1ccc(N2CCC(c3nc4c(s3)CCN(C3CCC3)CC4)CC2)cn1 [Example E77, 5-[4-(6-Cyclobutyl-5,6,7,8-tetrahydro-4H-[1,3]thiazolo[4,5-d]azepin-2-yl)-1-piperidinyl]-N-methyl-2-pyridinecarboxamide]",< 1.26
11,"Cc1ccccc1C(=O)N1CCC(c2nc3c(s2)CCN(C2CCC2)CC3)CC1 [Example E78, 6-Cyclobutyl-2-{1-[(2-methylphenyl)carbonyl]-4-piperidinyl}-5,6,7,8-tetrahydro-4H-[1,3]thiazolo[4,5-d]azepine]",< 0.316
12,"Cc1cc(C(=O)N2CCC(c3nc4c(s3)CCN(C3CCC3)CC4)CC2)[nH]n1 [Example E79, 6-Cyclobutyl-2-{1-[(3-methyl-1H-pyrazol-5-yl)carbonyl]-4-piperidinyl}-5,6,7,8-tetrahydro-4H-[1,3]thiazolo[4,5-d]azepine]",< 1.26
13,"O=C(c1ccc(Cl)cc1)N1CCC(c2nc3c(s2)CCN(C2CCC2)CC3)CC1 [Example E80, 2-{1-[(4-Chlorophenyl)carbonyl]-4-piperidinyl}-6-cyclobutyl-5,6,7,8-tetrahydro-4H-[1,3]thiazolo[4,5-d]azepine]",< 1.26
14,"O=C(c1cccc(Cl)c1)N1CCC(c2nc3c(s2)CCN(C2CCC2)CC3)CC1 [Example E81, 2-{1-[(3-Chlorophenyl)carbonyl]-4-piperidinyl}-6-cyclobutyl-5,6,7,8-tetrahydro-4H-[1,3]thiazolo[4,5-d]azepine]",< 0.316
15,"Cc1cccc(C(=O)N2CCC(c3nc4c(s3)CCN(C3CCC3)CC4)CC2)c1 [Example E82, 6-Cyclobutyl-2-{1-[(3-methylphenyl)carbonyl]-4-piperidinyl}-5,6,7,8-tetrahydro-4H-[1,3]thiazolo[4,5-d]azepine]",< 1.26
16,"Cc1cccnc1C(=O)N1CCC(c2nc3c(s2)CCN(C2CCC2)CC3)CC1 [Example E83, 6-Cyclobutyl-2-{1-[(3-methyl-2-pyridinyl)carbonyl]-4-piperidinyl}-5,6,7,8-tetrahydro-4H-[1,3]thiazolo[4,5-d]azepine]",< 1.26

# Next, values leading:
row,Ki [nM],Structure (SMILES)
1,< 1.26,"CC(C)N1CCc2nc(-c3ccc(N4CCN(C)C4=O)cc3)sc2CC1 [Example E29, 1-Methyl-3-{4-[6-(1-methylethyl)-5,6,7,8-tetrahydro-4H-[1,3]thiazolo[4,5-d]azepin-2-yl]phenyl}-2-imidazolidinone]"
2,< 1.26,"CN1CCN(c2ccc(-c3nc4c(s3)CCN(C3CCCCC3)CC4)cc2)C1=O [Example E30, 1-[4-(6-Cyclohexyl-5,6,7,8-tetrahydro-4H-[1,3]thiazolo[4,5-d]azepin-2-yl)phenyl]-3-methyl-2-imidazolidinone]"
3,< 1.26,"CN1CCN(c2ccc(-c3nc4c(s3)CCN(CC3CC3)CC4)cc2)C1=O [Example E31, 1-{4-[6-(Cyclopropylmethyl)-5,6,7,8-tetrahydro-4H-[1,3]thiazolo[4,5-d]azepin-2-yl]phenyl}-3-methyl-2-imidazolidinone]"
4,< 31.6,"c1ccc(-c2nc3c(s2)CCN(C2CCC2)CC3)cc1 [Example E42, 6-Cyclobutyl-2-phenyl-5,6,7,8-tetrahydro-4H-[1,3]thiazolo[4,5-d]azepine]"
5,< 1.26,"CNC(=O)c1ccc(-c2nc3c(s2)CCN(C2CCC2)CC3)cc1 [Example E43, 4-(6-Cyclobutyl-5,6,7,8-tetrahydro-4H-[1,3]thiazolo[4,5-d]azepin-2-yl)-N-methylbenzamide]"
6,< 0.316,"O=C1OCCN1c1ccc(-c2nc3c(s2)CCN(C2CCC2)CC3)cc1 [Example E44, 3-[4-(6-Cyclobutyl-5,6,7,8-tetrahydro-4H-[1,3]thiazolo[4,5-d]azepin-2-yl)phenyl]-1,3-oxazolidin-2-one]"
7,< 1.26,"N#Cc1ccc(-c2nc3c(s2)CCN(C2CCC2)CC3)cc1 [Example E48, 4-(6-Cyclobutyl-5,6,7,8-tetrahydro-4H-[1,3]thiazolo[4,5-d]azepin-2-yl)benzonitrile]"
8,< 31.6,"N#Cc1ccc(-c2nc3c(s2)CCN(C2CCC2)CC3)cn1 [Example E49, 5-(6-Cyclobutyl-5,6,7,8-tetrahydro-4H-[1,3]thiazolo[4,5-d]azepin-2-yl)-2-pyridinecarbonitrile]"
9,< 1.26,"CNC(=O)c1ccc(-c2nc3c(s2)CCN(C2CCC2)CC3)cn1 [Example E51, 5-(6-Cyclobutyl-5,6,7,8-tetrahydro-4H-[1,3]thiazolo[4,5-d]azepin-2-yl)-N-methyl-2-pyridinecarboxamide]"
10,< 0.316,"O=C1CCCN1c1ccc(-c2nc3c(s2)CCN(C2CCC2)CC3)cn1 [Example E52, 1-[5-(6-Cyclobutyl-5,6,7,8-tetrahydro-4H-[1,3]thiazolo[4,5-d]azepin-2-yl)-2-pyridinyl]-2-pyrrolidinone]"
11,< 0.316,"CN1CCN(c2ccc(-c3nc4c(s3)CCN(C3CCC3)CC4)cn2)C1=O [Example E53, 1-[5-(6-Cyclobutyl-5,6,7,8-tetrahydro-4H-[1,3]thiazolo[4,5-d]azepin-2-yl)-2-pyridinyl]-3-methyl-2-imidazolidinone]"
12,< 1.26,"c1cc(N2CCCCC2)ncc1-c1nc2c(s1)CCN(C1CCC1)CC2 [Example E55, 6-Cyclobutyl-2-[6-(1-piperidinyl)-3-pyridinyl]-5,6,7,8-tetrahydro-4H-[1,3]thiazolo[4,5-d]azepine]"
